# Reference: publication PMC5129256 (International Journal of Environmental Research and Public …, 2016)
# “And” between values parts separate entries of the source, which are not always exact repeats. Identical values can stand only once. Like-named read-outs stand apart in the source and are kept apart here.
# Assays:
# LMH cells [1] = tested on: LMH cells
# LMH cells [2] = details: PrestoBlue; for Viability of LMH Cells (%) ±S.E.M.: 24 h
# human skin fibroblasts = details: MTS assay; cited from earlier work
# [3] = tested on: human adenocarcinoma cell line HT-29; parameters: method as in PMID 14642818; details: HT-29, 20 mM (or 0.04%); cited from earlier work
# in vitro = details: chicken, LMH chicken liver hepatocellular carcinoma cells, Viability of LMH Cells (%) ± SD, MTT
# laboratory mice = details: mouse, in vivo; cited from earlier work
smiles,measurement,setting,value
N [Ammonium],Viability of LMH Cells (%) ± SD,"LMH cells [1]; MTT, 0.004%, 24 h",97.6 ± 4.3%
same,Viability of LMH Cells (%) ± SD,"LMH cells [1]; MTT, 0.004%, 48 h",95.6 ± 2.9%
same,Viability of LMH Cells (%) ± SD,"LMH cells [1]; MTT, 0.004%, 72 h",101.9 ± 5.0%
same,Viability of LMH Cells (%) ± SD,"LMH cells [1]; MTT, 0.008%, 24 h",98.0 ± 3.0%
same,Viability of LMH Cells (%) ± SD,"LMH cells [1]; MTT, 0.008%, 48 h",96.8 ± 1.3%
same,Viability of LMH Cells (%) ± SD,"LMH cells [1]; MTT, 0.008%, 72 h",104.8 ± 2.6%
same,Viability of LMH Cells (%) ± SD,"LMH cells [1]; MTT, 0.016%, 24 h",93.3 ± 2.8%
same,Viability of LMH Cells (%) ± SD,"LMH cells [1]; MTT, 0.016%, 48 h",81.4 ± 5.2 %
same,Viability of LMH Cells (%) ± SD,"LMH cells [1]; MTT, 0.063%, 24 h",61.9 ± 2.0 %
same,Viability of LMH Cells (%) ± SD,"LMH cells [1]; MTT, 0.063%, 48 h",28.3 ± 1.3 %
same,Viability of LMH Cells (%) ± SD,"LMH cells [1]; MTT, 0.063%, 72 h",13.8 ± 1.2 %
same,Viability of LMH Cells (%) ± SD,"LMH cells [1]; MTT, 0.125%, 24 h",18.1 ± 0.8 %
same,Viability of LMH Cells (%) ± SD,"LMH cells [1]; MTT, 0.125%, 48 h",7.1 ± 0.8 %
same,Viability of LMH Cells (%) ± SD,"LMH cells [1]; MTT, 0.125%, 72 h",10.0 ± 1.3 %
same,Viability of LMH Cells (%) ± SD,"LMH cells [1]; MTT, 0.25%, 24 h",5.4 ± 0.1 %
same,Viability of LMH Cells (%) ± SD,"LMH cells [1]; MTT, 0.25%, 48 h",1.6 ± 0.2 %
same,Viability of LMH Cells (%) ± SD,"LMH cells [1]; MTT, 0.25%, 72 h",2.9 ± 0.1 %
same,Viability of LMH Cells (%) ± SD,"LMH cells [1]; MTT, 0.5%, 24 h",5.9 ± 0.2 %
same,Viability of LMH Cells (%) ± SD,"LMH cells [1]; MTT, 0.5%, 48 h",2.1 ± 0.2 %
same,Viability of LMH Cells (%) ± SD,"LMH cells [1]; MTT, 0.5%, 72 h",2.8 ± 0.2 %
same,Viability of LMH Cells (%) ± SD,"LMH cells [1]; MTT, 1.0%, 24 h",13.1 ± 0.1 %
same,Viability of LMH Cells (%) ± SD,"LMH cells [1]; MTT, 1.0%, 48 h",1.7 ± 0.2 %
same,Viability of LMH Cells (%) ± SD,"LMH cells [1]; MTT, 1.0%, 72 h",5.8 ± 0.1 %
same,IC50 (%),"LMH cells [1]; MTT, 24 h exposure, from dose-response curves",0.08%
same,IC50 (%),"LMH cells [1]; MTT, 48 h exposure, from dose-response curves",0.04%
same,IC50 (%),"LMH cells [1]; MTT, 72 h exposure, from dose-response curves",0.02%
same,Viability of LMH Cells (%) ± SD,"LMH cells [1]; MTT, […], 24 h",96.4 ± 1.2%
same,Viability of LMH Cells (%) ± SD,"LMH cells [1]; MTT, […], 48 h",65.5 ± 4.0 %
same,Viability of LMH Cells (%) ± SD,"LMH cells [1]; MTT, […], 72 h",31.6 ± 2.1 %
same,Viability of LMH Cells (%) ±S.E.M.,LMH cells [2]; 0.004%,99.7 ± 5.8%
same,Viability of LMH Cells (%) ±S.E.M.,LMH cells [2]; 0.008%,99.0 ± 10.1%
same,Viability of LMH Cells (%) ±S.E.M.,LMH cells [2]; 0.016%,100.2 ± 8.1%
same,Viability of LMH Cells (%) ±S.E.M.,LMH cells [2]; 0.063%,51.1 ± 7.1 %
same,Viability of LMH Cells (%) ±S.E.M.,LMH cells [2]; 0.125%,24.6 ± 6.3 %
same,Viability of LMH Cells (%) ±S.E.M.,LMH cells [2]; 0.25%,5.7 ± 1.1 %
same,Viability of LMH Cells (%) ±S.E.M.,LMH cells [2]; 0.5%,4.6 ± 0.6 %
same,Viability of LMH Cells (%) ±S.E.M.,LMH cells [2]; 1.0%,4.7 ± 0.7 %
same,IC50 (%),"LMH cells [2]; 24 h exposure, from dose-response curves",0.07%
same,Viability of LMH Cells (%) ±S.E.M.,LMH cells [2]; […],99.1 ± 4.9%
same,IC50,human skin fibroblasts,9.4 mM
same,effect on proliferation,[3],almost suppressed proliferation
CCCC(=O)O [Butyric acid],IC50 (%),LMH cells [1],0.32% and 0.11%
same,cytotoxicity,"LMH cells [1]; MTT, 0.5%, 72 h",92.4%
same,dose-dependent inhibition reached,"LMH cells [1]; MTT, 72 h exposure, concentrations above 0.0125%",92%
same,"viability at 24 h, 0.006 %","in vitro; 0.006%, 24 h",100 ± 0.7%
same,"viability at 72 h, 0.006 %","in vitro; 0.006%, 72 h",98.2 ± 2.1%
same,"viability at 24 h, 0.013 %","in vitro; 0.013%, 24 h",100 ± 0.4%
same,"viability at 72 h, 0.013 %","in vitro; 0.013%, 72 h",95.7 ± 2.1%
same,"viability at 24 h, 0.025 %","in vitro; 0.025%, 24 h",100 ± 0.3%
same,"viability at 72 h, 0.025 %","in vitro; 0.025%, 72 h",86 ± 4.8%
same,"viability at 24 h, 0.063 %","in vitro; 0.063%, 24 h",68.9 ± 1.4%
same,"viability at 72 h, 0.063 %","in vitro; 0.063%, 72 h",66.5 ± 3.2%
same,"viability at 24 h, 0.125 %","in vitro; 0.125%, 24 h",65 ± 0.8%
same,"viability at 72 h, 0.125 %","in vitro; 0.125%, 72 h",46.4 ± 3.2%
same,"viability at 24 h, 0.25 %","in vitro; 0.25%, 24 h",59.4 ± 1.3%
same,"viability at 72 h, 0.25 %","in vitro; 0.25%, 72 h",31.1 ± 2%
same,"viability at 24 h, 0.5 %","in vitro; 0.5%, 24 h",25.1 ± 0.7%
same,"viability at 72 h, 0.5 %","in vitro; 0.5%, 72 h",7.6 ± 0.7%
same,"viability at 24 h, […]","in vitro; […], 24 h",89.3 ± 2%
same,"viability at 72 h, […]","in vitro; […], 72 h",67.2 ± 4.9%
CNC [Dimethylamine],IC50 (%),LMH cells [1],0.06%
same,IC80,LMH cells [1],0.04% and 0.04 * %
same,Viability of LMH Cells (%) ± SD,LMH cells [1],20.5 ± 0.1 %
same,cytotoxicity,LMH cells [1],above 80%
same,RD50 (concentration which reduces the rate of respiration by 50%),laboratory mice,70 mL/m^3
